In ChEMBL document CHEMBL4229455, “Synthesis and anticancer activity of novel bisindolylhydroxymaleimide derivatives with potent GSK-3 kinase inhibition” (Bioorg Med Chem, 2018):

How the values were obtained:
[1] = target: Glycogen synthase kinase-3 (Sus scrofa) (UniProt B2LUN4+I6LNT8); test: Inhibition of domestic porcine brain full length GSK-3alpha/beta assessed as residual activity at 10 uM using GS-1 as substrate in presence of [gamma-33P]ATP; conditions: Sus scrofa domesticus
[2] = tested on: SNB-19; test: Cytotoxicity against human SNB19 cells assessed as cell growth at 10 uM after 48 hrs by SRB assay relative to control; assay type: functional; conditions: SNB-19, 48 h, read-out: Activity
[3] = tested on: MDA-MB-231; test: Cytotoxicity against human MDA-MB-231 cells assessed as cell growth at 10 uM after 48 hrs by SRB assay relative to control; assay type: functional; conditions: MDA-MB-231, 48 h, read-out: Activity
[4] = tested on: HOP-62; test: Cytotoxicity against human HOP62 cells assessed as cell growth at 10 uM after 48 hrs by SRB assay relative to control; assay type: functional; conditions: HOP-62, 48 h, read-out: Activity
[5] = tested on: A498; test: Cytotoxicity against human A498 cells assessed as cell growth at 10 uM after 48 hrs by SRB assay relative to control; assay type: functional; conditions: A498, 48 h, read-out: Activity
[6] = tested on: HCT-116; test: Cytotoxicity against human HCT116 cells assessed as cell growth at 10 uM after 48 hrs by SRB assay relative to control; assay type: functional; conditions: HCT-116, 48 h, read-out: Activity
[7] = tested on: LOX IMVI; test: Cytotoxicity against human LOXIMVI cells assessed as cell growth at 10 uM after 48 hrs by SRB assay relative to control; assay type: functional; conditions: read-out: Activity
[8] = tested on: KM12; test: Cytotoxicity against human KM12 cells assessed as cell growth at 10 uM after 48 hrs by SRB assay relative to control; assay type: functional; conditions: KM12, 48 h, read-out: Activity
[9] = tested on: Malme-3M; test: Cytotoxicity against human MALME-3M cells assessed as cell growth at 10 uM after 48 hrs by SRB assay relative to control; assay type: functional; conditions: read-out: Activity
[10] = tested on: SF-268; test: Cytotoxicity against human SF268 cells assessed as cell growth at 10 uM after 48 hrs by SRB assay relative to control; assay type: functional; conditions: SF-268, 48 h, read-out: Activity
[11] = target: Serine/threonine-protein kinase pim-1 (Homo sapiens, UniProt P11309); test: Inhibition of recombinant full length human PIM1 expressed in bacteria assessed as residual activity at 10 uM using histone H1 as substrate in presence of [gamma-33P]ATP
[12] = tested on: NCI-H522; test: Cytotoxicity against human NCI-H522 cells assessed as cell growth at 10 uM after 48 hrs by SRB assay relative to control; assay type: functional; conditions: NCI-H522, 48 h, read-out: Activity
[13] = tested on: TK-10; test: Cytotoxicity against human TK10 cells assessed as cell growth at 10 uM after 48 hrs by SRB assay relative to control; assay type: functional; conditions: TK-10, 48 h, read-out: Activity
[14] = tested on: HOP-92; test: Cytotoxicity against human HOP92 cells assessed as cell growth at 10 uM after 48 hrs by SRB assay relative to control; assay type: functional; conditions: HOP-92, 48 h, read-out: Activity
[15] = target: Aurora kinase B (Homo sapiens, UniProt Q96GD4); test: Inhibition of recombinant full length human aurora B expressed in baculovirus infected Sf9 insect cells using MBP as substrate in presence of [gamma-33P]ATP
[16] = tested on: SK-MEL-2; test: Cytotoxicity against human SK-MEL-2 cells assessed as cell growth at 10 uM after 48 hrs by SRB assay relative to control; assay type: functional; conditions: SK-MEL-2, 48 h, read-out: Activity
[17] = species: Sus scrofa domesticus; test: Inhibition of domestic porcine brain full length […] assessed as residual activity at 10 uM using RRKHAAIGSpAYSITA as substrate in presence of [gamma-33P]ATP
[18] = tested on: UO-31; test: Cytotoxicity against human UO31 cells assessed as cell growth at 10 uM after 48 hrs by SRB assay relative to control; assay type: functional; conditions: UO-31, 48 h, read-out: Activity
[19] = tested on: NCI/ADR-RES; test: Cytotoxicity against human NCI-ADR-RES cells assessed as cell growth at 10 uM after 48 hrs by SRB assay relative to control; assay type: functional; conditions: read-out: Activity
[20] = tested on: SW-620; test: Cytotoxicity against human SW620 cells assessed as cell growth at 10 uM after 48 hrs by SRB assay relative to control; assay type: functional; conditions: SW-620, 48 h, read-out: Activity
[21] = tested on: NCI-H226; test: Cytotoxicity against human NCI-H226 cells assessed as cell growth at 10 uM after 48 hrs by SRB assay relative to control; assay type: functional; conditions: NCI-H226, 48 h, read-out: Activity
[22] = tested on: OVCAR-4; test: Cytotoxicity against human OVCAR4 cells assessed as cell growth at 10 uM after 48 hrs by SRB assay relative to control; assay type: functional; conditions: OVCAR-4, 48 h, read-out: Activity
[23] = tested on: SNB-75; test: Cytotoxicity against human SNB75 cells assessed as cell growth at 10 uM after 48 hrs by SRB assay relative to control; assay type: functional; conditions: SNB-75, 48 h, read-out: Activity
[24] = tested on: BT-549; test: Cytotoxicity against human BT549 cells assessed as cell growth at 10 uM after 48 hrs by SRB assay relative to control; assay type: functional; conditions: BT-549, 48 h, read-out: Activity
[25] = tested on: OVCAR-3; test: Cytotoxicity against human OVCAR3 cells assessed as cell growth at 10 uM after 48 hrs by SRB assay relative to control; assay type: functional; conditions: OVCAR-3, 48 h, read-out: Activity
[26] = tested on: MDA-MB-468; test: Cytotoxicity against human MDA-MB-468 cells assessed as cell growth at 10 uM after 48 hrs by SRB assay relative to control; assay type: functional; conditions: MDA-MB-468, 48 h, read-out: Activity
[27] = tested on: HT-29; test: Cytotoxicity against human HT-29 cells assessed as cell growth at 10 uM after 48 hrs by SRB assay relative to control; assay type: functional; conditions: HT-29, 48 h, read-out: Activity
[28] = tested on: NCI-H322M; test: Cytotoxicity against human NCI-H322M cells assessed as cell growth at 10 uM after 48 hrs by SRB assay relative to control; assay type: functional; conditions: read-out: Activity
[29] = tested on: T47D; test: Cytotoxicity against human T47D cells assessed as cell growth at 10 uM after 48 hrs by SRB assay relative to control; assay type: functional; conditions: read-out: Activity
[30] = tested on: MOLT-4; test: Cytotoxicity against human MOLT4 cells assessed as cell growth at 10 uM after 48 hrs by SRB assay relative to control; assay type: functional; conditions: MOLT-4, 48 h, read-out: Activity
[31] = tested on: SK-OV-3; test: Cytotoxicity against human SKOV3 cells assessed as cell growth at 10 uM after 48 hrs by SRB assay relative to control; assay type: functional; conditions: SK-OV-3, 48 h, read-out: Activity
[32] = tested on: M14; test: Cytotoxicity against human M14 cells assessed as cell growth at 10 uM after 48 hrs by SRB assay relative to control; assay type: functional; conditions: M14, 48 h, read-out: Activity
[33] = tested on: SR; test: Cytotoxicity against human SR cells assessed as cell growth at 10 uM after 48 hrs by SRB assay relative to control; assay type: functional; conditions: read-out: Activity
[34] = tested on: SF-539; test: Cytotoxicity against human SF539 cells assessed as cell growth at 10 uM after 48 hrs by SRB assay relative to control; assay type: functional; conditions: SF-539, 48 h, read-out: Activity

Serine/threonine-protein kinase pim-1, sequence (P11309 whole entry, looked up): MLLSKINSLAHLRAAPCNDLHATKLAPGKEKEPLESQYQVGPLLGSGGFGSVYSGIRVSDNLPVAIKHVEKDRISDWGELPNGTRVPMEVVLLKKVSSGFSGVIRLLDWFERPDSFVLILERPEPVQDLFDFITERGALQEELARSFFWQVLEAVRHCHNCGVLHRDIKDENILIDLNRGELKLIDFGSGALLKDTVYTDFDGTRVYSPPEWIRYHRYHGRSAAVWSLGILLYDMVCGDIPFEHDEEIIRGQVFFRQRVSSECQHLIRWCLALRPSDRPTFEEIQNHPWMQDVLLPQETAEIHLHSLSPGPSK
Aurora kinase B, sequence (Q96GD4 whole entry): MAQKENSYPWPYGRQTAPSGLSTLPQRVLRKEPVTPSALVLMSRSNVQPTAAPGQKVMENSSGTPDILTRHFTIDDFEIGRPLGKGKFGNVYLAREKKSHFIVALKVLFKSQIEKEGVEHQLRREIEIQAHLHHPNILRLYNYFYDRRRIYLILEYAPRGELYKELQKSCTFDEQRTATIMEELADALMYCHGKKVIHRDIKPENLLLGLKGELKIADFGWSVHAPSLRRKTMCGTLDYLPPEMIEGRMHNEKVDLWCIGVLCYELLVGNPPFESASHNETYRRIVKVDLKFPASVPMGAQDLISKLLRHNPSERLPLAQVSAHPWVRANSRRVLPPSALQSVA

Structure (SMILES)	Activity [1] [%]	growth at 10 µM [3] [%]	growth at 10 µM [4] [%]	growth at 10 µM [6] [%]	growth at 10 µM [7] [%]	growth at 10 µM [8] [%]	growth at 10 µM [10] [%]	Activity [11] [%]	growth at 10 µM [12] [%]	growth at 10 µM [13] [%]	IC50 [15] [µM]	Activity [17] [%]	growth at 10 µM [18] [%]	growth at 10 µM [19] [%]	growth at 10 µM [20] [%]	growth at 10 µM [22] [%]	growth at 10 µM [25] [%]	growth at 10 µM [27] [%]	growth at 10 µM [29] [%]	growth at 10 µM [32] [%]	also measured
N#CCCCCCn1cc(C2=C(c3cn(CCCCCC#N)c4ccccc34)C(=O)N(O)C2=O)c2ccccc21	5	31 to 40.3	45 to 66.5	21 to 63.3	19 to 30.5	25 to 65.7	50 to 80.6	78	1 to 54.9	70 to 84.2	> 10	67	23 to 43.8	62 to 96.3	31 to 62.5	91.6	13 to 50.6	51 to 92.4	26 to 65.5	28 to 73.4	growth at 10 µM [2]: 27 to 79.5%; growth at 10 µM [5]: 16 to 69.2%; growth at 10 µM [9]: 55%; growth at 10 µM [14]: 25%; growth at 10 µM [16]: 8 to 68.7%; growth at 10 µM [21]: 44 to 70%; growth at 10 µM [23]: 14 to 67.7%; growth at 10 µM [24]: 16 to 56%; growth at 10 µM [26]: 3 to 58%; growth at 10 µM [28]: 45 to 92.3%; growth at 10 µM [30]: 10 to 49.4%; growth at 10 µM [31]: 45 to 78.5%
Cn1cc(C2=C(c3cn(C)c4ncccc34)C(=O)NC2=O)c2ccccc21	-21	35 to 56.3	21 to 40.6	15 to 21.9	16 to 41	8.78 to 12	27 to 50.2	1	14.3 to 32	26.3 to 33	> 10	76	12 to 22.6	34 to 53.5	12.9 to 20	34 to 59	25 to 50.2	2.28 to 5	10 to 24.2	7 to 17.5	growth at 10 µM [2]: 40 to 65%; growth at 10 µM [9]: 20.3 to 29%; growth at 10 µM [14]: 12%; growth at 10 µM [33]: 7 to 12.1%; growth at 10 µM [30]: 8 to 12.6%
N#CCCCCCn1cc(C2=C(c3cn(CCCCCC#N)c4ccccc34)C(=O)NC2=O)c2ccccc21	11	81.4	118	65.9	69.5	81	107	54	88.7	101	> 10	108	72.7	79	108	81.2	72.7	84.4	67.6	125	growth at 10 µM [5]: 54.5%; growth at 10 µM [9]: 121%; growth at 10 µM [34]: 53.7%; growth at 10 µM [14]: 142%; growth at 10 µM [16]: 96.5%; growth at 10 µM [21]: 80.4%; growth at 10 µM [23]: 47.2%; growth at 10 µM [24]: 73.6%; growth at 10 µM [26]: 63.3%; growth at 10 µM [28]: 103%; growth at 10 µM [31]: 57%
O=C(O)CCCCCn1cc(C2=C(c3c[nH]c4ccccc34)C(=O)N(O)C2=O)c2ccccc21	8	92.6	86.8	98.9	80.4	95.6	98.3	53	88.3	99	> 10	83	61	106	95.3	113	99.3	101	96.2	92.9	growth at 10 µM [2]: 107%; growth at 10 µM [5]: 88.5%; growth at 10 µM [34]: 96.3%; growth at 10 µM [16]: 99.4%; growth at 10 µM [21]: 92.5%; growth at 10 µM [33]: 100%; growth at 10 µM [23]: 86%; growth at 10 µM [24]: 99.9%; growth at 10 µM [26]: 104%; growth at 10 µM [28]: 101%; growth at 10 µM [30]: 99.7%; growth at 10 µM [31]: 81%
